From patent US9730956B2 (priority 2014, dated 2017) come the findings set out here.

The subject of assay [1] is T. mentagrophytes. In words: NORS antifungal effect on mycelial viability. It is filed as cell-based, Trichophyton mentagrophytes. The conditions noted are these: 30 minute exposure; 0.14% sodium nitrite (pH 6) or citric acid at pH 3.7 alone.
Assay [2] relates to T. rubrum. Description: NORS antifungal effect on mycelial viability. As to conditions: 30 minute exposure; 0.14% sodium nitrite (pH 6) or citric acid at pH 3.7 alone. It is filed as cell-based, Trichophyton rubrum.

Consider `O=C(O)CC(O)(CC(=O)O)C(=O)O` [citric acid], for which the “effect of single NORS component on mycelial viability” value in assay [1] and in assay [2] was “Minimal to no effect” throughout.

For `O=NO` [sodium nitrite], the “effect of single NORS component on mycelial viability” value in assay [1] and in assay [2] was “Minimal to no effect” throughout.
